How the values were obtained:
Assay type in all cases: cell-based
[1] = tested on: H1299 (NRAS Q61K mutant type); assay: In vitro growth inhibition (GI50), H1299; settings: Homo sapiens, NCI-H1299
Source text: (§1) Tumor cell line is an effective cell model for studying the inhibition of tumor cell growth or proliferation in vitro. In the present invention, a representative tumor cell line was selected to determine the cell growth inhibition activity of the present compound. All cell lines used were from ATCC, DSMZ, and the Cell Bank of the Chinese Academy of Sciences. Cell culture conditions and methods were in accordance with the requirements of each cell line. Cells were subcultured in vitro for no more than 3 passages each time, and as required, single-clone purification and identification of cell lines could be carried out.
(§2) The cell culture media used were RPMI1640 (Gibco), MEM (Gibco), McCOY'S5A (Gibco), and IMDM (Gibco). The complete medium was prepared by supplement with 5˜20% fetal calf serum (Gibco), 1% double-antibiotics (10000 units/mL penicillin and 10000 units/mL), 2 mM glutamine or 1 mM sodium pyruvate, respectively.
(§3) Human large cell lung cancer cell NCI-H460 (KRAS […] mutant type, ATCC), human non-small cell lung cancer cell line H1299 (NRAS Q61K mutant type, ATCC), human melanoma cell line A375 (BRAF V600E mutant type, Shanghai Cell Bank of Chinese Academy of Sciences), human colon cancer cell line HCT116 (KRAS G13D mutant type, Shanghai Cell Bank, Chinese Academy of Sciences) were cultured in a complete medium of 1×RPMI1640 (10% FBS), respectively. Human non-small cell lung cancer cells A549 (KRAS G12S mutant type, Shanghai Cell Bank, Chinese Academy of Sciences) were cultured in a complete medium of 1× Ham's supplemented with 10% FBS, 1% double antibody, and 2 mM glutamine.
(§4) Adherent cells were digested with 0.25% pancreatin-EDTA (Gibco). The suspension cells were collected by centrifugation. The supernatant was discarded and the cell pellet was resuspended and counted. Different cell concentrations (5˜10×10^4 cells/mL) were prepared according to the growth cycle of each cell line and then seeded on a 96-well plate (Corning), 100 μL/well. The cells were incubated overnight at 37° C., 5% CO2. The compounds were added to the cells on the second day with 2 wells in parallel. The final concentration of organic solvent shall not exceed 1%. The cells were continually incubated for 3 to 5 days, and then subjected to MTT assay.
(§5) The compound of the present invention and the control compound were dissolved in DMSO (Sigma) respectively, with the purity of more than 98%. The compound was stored in a concentration of 10 mM at −20° C. and diluted to 2- or 10-fold series prior to use.
(§6) Dojindo CCK8 reagent kit was used as MTT assay. THERMO […] FC meter was used as microplate reader.
(§7) For adherent cells, culture medium was removed and immediately replaced with the fresh prepared medium which contains 10% CCK8 reagent (100 μL/well). For the suspension cells, CCK8 was directly added to 10% of the final concentration. The cells were continually incubated for 1˜4 h. When a dark yellow color could be observed in the solvent control wells, the absorbance value at OD450 nm was measured and the cell growth rate was calculated according to the following formula: Cell Growth Rate (%)=100*(T−T0)/(C−T0) T=optical density of drug treatment cell well—optical density of blank control well; T0=optical density of cell well before drug treatment—optical density of blank control well; C=optical density of cell well of solvent control group—optical density of blank control well. The concentration value of 50% inhibition of cell growth (GI50) was calculated according to the drug concentration and cell growth rate curve. The experiment was independently repeated 1˜3 times, and subject to biological statistical analysis. 4. Experimental Results
(§8) Tumor cell growth inhibition test was performed by selecting representative compounds (compounds 4, 11, 12, 16, 27, 68, 71, 77, 79, 89 and 116 of the present invention). The initial concentration of the compound was 5,000 nM, then it was serially diluted by 2-fold or 10-fold to 0.01 nM. […]

[2] = tested on: A375 (BRAF V600E mutant type); assay: In vitro growth inhibition (GI50), A375; settings: Homo sapiens, A-375
Source text: as §1, §2, §3, §4, §5, §6, §7, §8

[3] = tested on: SH-SY5Y (expressing ALK F1174L mutant protein); assay: In vitro growth inhibition (GI50), SH-SY5Y; settings: Homo sapiens
Source text: as §1, §2
Human non-small cell lung cancer cell line NCI-H2228 (expressing EML4-ALK fusion gene, ATCC) and human anaplastic large cell lymphoma cell line Karpas-299 (expressing NPM-ALK fusion gene, ATCC) were cultured in complete medium comprising 1×RPMI1640 (10% FBS), respectively. Neuroblastoma cell line SH-SY5Y (expressing ALK F1174L mutant protein, Shanghai Cell Bank, Chinese Academy of Sciences) was cultured in MEM complete medium (1×MEM, 10% FBS, 1% NEAA, 1 mM sodium pyruvate).
as §4, §5, §6, §7
Tumor cell growth inhibition test was performed by selecting representative compounds (compounds 4, 11, 12, 16, 27, 68, 71, 77, 79, 89 and 116 of the present invention). The initial concentration of the compound was 5,000 nM, then it was serially diluted by 2-fold or 10-fold to 0.01 nM. The GI50 value of each test compound was calculated according to the GI50 assay and calculation method. The experiments were repeated 1 to 3 times, and data were subjected to biological statistical analysis.

[4] = tested on: NCI-H2170 (HER2/ErbB2 amp); assay: In vitro growth inhibition (GI50), NCI-H2170; settings: Homo sapiens
Source text: as §1, §2
(§9) Human gastric cancer cell line NCI-N87 (HER2/ErbB2 amp, ATCC), human breast cancer cell line HCC1954 (HER2/ErbB2 amp, ATCC) and ZR-75-30 (HER2/ErbB2 amp, ATCC), human adenocarcinoma cell line AU565 (HER2/ErbB2 amp, ATCC), human lung squamous cell carcinoma cell line NCI-H2170 (HER2/ErbB2 amp, ATCC), human bronchioalveolar adenocarcinoma cell line NCI-H1781 (HER2/ErbB2 Ins G776V,C mutant type, ATCC) were cultured with a 1×RPMI1640 complete medium (10% FBS), respectively. Human lung adenocarcinoma cell line Calu-3 (HER2/ErbB2 amp, ATCC) was cultured with 1×MEM, 10% FBS, 1% double antibody, 1% NEAA (Gibco), 2 mM glutamine and 1 mM sodium pyruvate. The human breast cancer cell line SK-BR-3 (HER2/ErbB2 amp, ATCC) was cultured with a McCOY'S5A complete medium (10% FBS).
as §4, §5, §6, §7
(§10) Tumor cell growth inhibition test was performed by selecting representative compounds (compounds 4, 11, 12, 16, 27, 68, 71, 77, 79, 89 and 116 of the present invention). […]

AU565 (HER2/ErbB2 amp) = assay: In vitro growth inhibition (GI50), AU565; settings: Homo sapiens
Source text: as §1, §2, §9, §4, §5, §6, §7, §10

Measured: GI50

CC(C)(C)c1cc(NC(=O)Nc2ccc(-n3cnc4cc(O)ccc43)cc2)no1 [Compound 4, 1-(5-tert-butyl-isoxazol-3-yl)-3-[4-(5-hydroxy-benzimidazol-1-yl)-phenyl]-urea]
> 2500 nM: all assays above

CC(C)(C)c1cc(NC(=O)Nc2ccc(-n3cnc4cc(OCCO)ccc43)cc2)no1 [Compound 11, 1-(5-tert-butyl-isoxazol-3-yl)-3-{4-[5-(2-hydroxy-ethoxyl)-benzimidazol-1-yl]-phenyl]-urea]
> 2500 nM: all assays above

CC(C)(C)c1cc(NC(=O)Nc2ccc(-n3cnc4cc(OCCN5CCOCC5)ccc43)cc2)no1 [Compound 16, 1-(5-tert-butyl-isoxazol-3-yl)-3-{4-[5-(2-morpholin-4-yl-ethoxyl)-benzimidazol-1-yl]-phenyl}-urea]
> 2500 nM: all assays above

CC(C)(C)c1cc(NC(=O)Nc2ccc(-n3cnc4ccc(OCCN5CCOCC5)cc43)cc2)no1 [Compound 27, 1-(5-tert-butyl-isoxazol-3-yl)-3-{4-[6-(2morpholin-4-yl-ethoxyl)-benzimidazol-1-yl]-phenyl}-urea]
> 2500 nM: all assays above

CC(C)(C)c1cc(NC(=O)Nc2ccc(-n3cnc4ccccc43)cc2)[nH]n1 [Compound 68, 1-(4-benzimidazol-1-yl-phenyl)-3-(5-tert-butyl-2H-pyrazol-3-yl)-urea]
> 2500 nM: all assays above

COc1ccc2c(c1)ncn2-c1ccc(NC(=O)Nc2cc(C(C)(C)C)n[nH]2)cc1 [Compound 71, 1-(5-tert-butyl-2H-pyrazol-3-yl)-3-[4-(5-methoxyl-benzimidazol-1-yl)-phenyl]-urea]
> 2500 nM: all assays above

COCCOc1ccc2c(c1)ncn2-c1ccc(NC(=O)Nc2cc(C(C)(C)C)n[nH]2)cc1 [Compound 77, 1-(5-tert-butyl-2H-pyrazol-3-yl)-3-{4-[5-(2-methoxyl-ethoxyl)-benzimidazol-1-yl]-phenyl}-urea]
> 2500 nM: all assays above

CC(C)(C)c1cc(NC(=O)Nc2ccc(-n3cnc4cc(OCCO)ccc43)cc2)[nH]n1 [Compound 79, 1-(5-tert-butyl-2H-pyrazol-3-yl)-3-{4-[5-(2-hydroxy-ethoxyl)-benzimidazol-1-yl]-phenyl]urea]
> 2500 nM: all assays above

CC(C)(C)c1cc(NC(=O)Nc2ccc(-n3cnc4cc(OCCN5CCOCC5)ccc43)cc2)[nH]n1 [Compound 89, 1-(5-tert-butyl-2H-pyrazol-3-yl)-3-{4-[5-(2-morpholin-4-yl-ethoxyl)-benzimidazol-1-yl]-phenyl}-urea]
> 2500 nM: all assays above

CC(C)(C)c1cc(N)n(C(=O)Nc2ccc(-n3cnc4ccccc43)cc2)n1 [Compound 116, 5-amino-3-tert-butyl-pyrazol-1-carboxylic acid (4-benzimidazol-1-yl-phenyl)-amide]
> 2500 nM: all assays above

From patent US10647680B2, “Urea compound, preparation method therefor and medical use thereof” (Ancureall Pharmaceutical (Shanghai) Co., Ltd., priority 2016, dated 2020)
